BindingDB's records for doi:10.1021/acs.jnatprod.0c00921 (Bc Cancer, 2021)

Experiment: Inhibition of R1881-stimulated AR transcription driven human LNCaP cells proliferation preincubated for 1 hr followed by R1881 addition and measured after 4 days by Alamar blue assay

Compound: CCC(=O)N[C@H](C[C@H](C)C(Cl)(Cl)Cl)C(=O)N1C(=O)C=C(OC)[C@@H]1C[C@H](C)C(Cl)Cl
- IC50: 14 µM
